Biological target: T1, human α7 nAChR (Homo sapiens, UniProt P36544)
T1 construct: expressed in transfected cells
Experiment: Evaluation of PAM activity with human α7 nACh receptor stably expressing cells (aequorin luminescence, FDSS7000)
Type: cell-based
Conditions: 1 μM test compound (values marked *, footnote of Table 25); ACh at EC20; ratio of RLU (Max-Min) to control wells; read-out: α7PAM (%) @1 μM
Summary of the method: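 Human α7 nAChR stable cells loaded with 4 μM Viviren (final) for 4 h at room temperature in the dark. Compounds in Hanks/20 mM HEPES/0.2% BSA were added and luminescence recorded on FDSS7000. PAM activity = RLU (Max-Min) ratio of test wells to control wells.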

T1 sequence (P36544 23-502): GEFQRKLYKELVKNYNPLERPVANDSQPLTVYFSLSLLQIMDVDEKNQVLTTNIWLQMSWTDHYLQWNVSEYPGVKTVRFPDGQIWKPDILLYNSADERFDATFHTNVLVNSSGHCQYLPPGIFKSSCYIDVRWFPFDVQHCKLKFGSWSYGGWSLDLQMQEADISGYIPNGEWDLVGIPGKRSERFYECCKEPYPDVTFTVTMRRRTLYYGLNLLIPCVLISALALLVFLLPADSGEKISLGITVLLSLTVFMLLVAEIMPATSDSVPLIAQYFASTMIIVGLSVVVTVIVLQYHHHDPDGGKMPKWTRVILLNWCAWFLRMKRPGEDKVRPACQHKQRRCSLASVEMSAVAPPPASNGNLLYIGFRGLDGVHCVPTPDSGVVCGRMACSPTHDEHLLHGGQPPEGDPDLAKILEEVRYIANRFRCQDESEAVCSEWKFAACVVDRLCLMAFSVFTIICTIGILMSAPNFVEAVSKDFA

Q: How did the activity at 1 µM turn out when O=C(NC1CCCCC1)N1[C@@H]2CC[C@H]1C[C@@H](n1cnc(-c3cccc(F)c3F)c1)C2 [Example 387] was run?
A: 315%

Q: How did the activity at 1 µM turn out when O=C(C1CCC(F)(F)CC1)N1[C@@H]2CC[C@H]1C[C@@H](n1cnc(-c3cccc(F)c3F)c1)C2 [Example 429] was run?
A: 111%

Q: For CC(C)(F)C(=O)N[C@H]1CC[C@@H](n2cnc(-c3cc(F)c(Cl)cc3F)c2)CC1 [Example 316], which activity at 1 µM is on record?
A: 267%

Q: With O=C(C1CCC(F)(F)CC1)N1[C@@H]2CC[C@H]1C[C@H](n1cnc(-c3cc(F)ccc3F)c1)C2 [Example 451] as the molecule, how does the activity at 1 µM read?
A: 143%

Same assay, conditions: 10 μM test compound; ACh at EC20; ratio of RLU (Max-Min) to control wells

Q: For CC(C)(F)C(=O)N[C@H]1CC[C@@H](n2cnc(-c3ccc(F)cc3)c2)CC1 [Example 277], which “α7PAM (%) @10 μM” value is on record?
A: 424%

Same assay, conditions: 10 μM test compound; ACh at EC20; ratio of RLU (Max-Min) to control wells; read-out: α7PAM (%) @10 μM

Q: How did the activity at 10 µM turn out when O=C(NC1CCCCC1)N1[C@@H]2CC[C@H]1C[C@H](n1cnc(-c3cc(F)ccc3F)c1)C2 [Example 411] was run?
A: 229%

Q: Which activity at 10 µM does the source give for O=C(NC1CCC(F)(F)CC1)N1[C@@H]2CC[C@H]1C[C@@H](n1cnc(-c3ccc(F)cc3F)c1Cl)C2 [Example 394] here?
A: 455%

Q: For CC(C)(C)NC(=O)N1CCC(n2cnc(-c3cccc(F)c3)c2)CC1 [Example 64], which activity at 10 µM is on record?
A: 149%

Q: O=C(C1CCC(F)(F)CC1)N1[C@@H]2CC[C@H]1C[C@@H](n1cnc(-c3cc(F)ccc3F)c1Cl)C2 [Example 437] was tested. Which activity at 10 µM did it give?
A: 533%

Q: How did the activity at 10 µM turn out when O=C(NC1CCC(F)(F)CC1)N1[C@@H]2CC[C@H]1C[C@H](n1cnc(-c3cccc(F)c3F)c1)C2 [Example 409] was run?
A: 576%

Q: For O=C(Nc1ccccc1F)N1CCC(n2cnc(-c3ccc(Cl)cc3)c2)CC1 [Example 21], which activity at 10 µM is on record?
A: 291%

Q: With N#Cc1c(-c2ccccc2F)ncn1C1CCN(C(=O)C2CCC(F)(F)CC2)CC1 [Example 156, 1-{1-[(4,4-difluorocyclohexyl)carbonyl]piperidin-4-yl}-4-(2-fluorophenyl)-1H-imidazole-5-carbonitrile] as the molecule, how does the activity at 10 µM read?
A: 522%

Q: Which activity at 10 µM does the source give for COc1ccc(-c2ncn([C@H]3CC[C@@H](NC(=O)C4CCCC4)CC3)c2Cl)cc1Cl [Example 180] here?
A: 375%

Q: Which activity at 10 µM does the source give for O=C(NC1CCCCC1)N1[C@@H]2CC[C@H]1C[C@H](n1cnc(-c3ccccc3)c1)C2 [Example 406] here?
A: 629%

Q: Fc1ccc(-c2ncn([C@H]3CC[C@@H](Nc4cc(C(F)(F)F)ncn4)CC3)c2Cl)cc1 [Example 237] was tested. Which activity at 10 µM did it give?
A: 405%

Q: Which activity at 10 µM does the source give for CC(C)(F)C(=O)N[C@H]1CC[C@@H](n2cnc(-c3ccc(F)cc3)c2C#N)CC1 [Example 332, N-{cis-4-[5-cyano-4-(4-fluorophenyl)-1H-imidazol-1-yl]cyclohexyl}-2-fluoro-2-methylpropanamide] here?
A: 464%

Q: With O=C(NC1CCCCC1)N1CCC(n2cnc(-c3cccc(F)c3)c2Cl)CC1 [Example 84] as the molecule, how does the activity at 10 µM read?
A: 747%

Q: COc1ccc(-c2ncn([C@H]3CC[C@@H](NC(=O)C(C)(C)F)CC3)c2Cl)cc1Cl [Example 178] was tested. Which activity at 10 µM did it give?
A: 775%

Q: For O=C(C1CCC(F)(F)CC1)N1[C@@H]2CC[C@H]1C[C@@H](n1cnc(-c3ccccc3F)c1)C2 [Example 427], which activity at 10 µM is on record?
A: 305%

Q: COC1CCC(NC(=O)N2CCC(n3cnc(-c4ccc(C(F)(F)F)cc4)c3)CC2)CC1 (stereo not drawn) [Example 52] was tested. Which activity at 10 µM did it give?
A: 205%

Q: With Cc1ccc(-c2cn(C3CCN(C(=O)NC4CCCCC4)CC3)cn2)s1 [Example 124] as the molecule, how does the activity at 10 µM read?
A: 572%

Q: O=C(NC1CCOCC1)N1[C@@H]2CC[C@H]1C[C@@H](n1cnc(-c3ccc(F)cc3F)c1Cl)C2 [Example 395] was tested. Which activity at 10 µM did it give?
A: 869%

Q: Which activity at 10 µM does the source give for CC(F)(F)C(=O)N[C@H]1CC[C@@H](n2cnc(-c3ccc(F)cc3)c2)CC1 [Example 288] here?
A: 327%

Q: Which activity at 10 µM does the source give for CC(C)(F)C(=O)N[C@H]1CC[C@@H](n2cnc(-c3cccc(C(F)(F)F)c3)c2Cl)CC1 [Example 193] here?
A: 187%

Q: For N#Cc1c(-c2ccc(F)cc2)ncn1C1CCN(C(=O)NC2CCCCC2)CC1 [Example 255], which activity at 10 µM is on record?
A: 759%

Q: For N#Cc1c(-c2cc(F)ccc2F)ncn1[C@H]1CC[C@@H](C(=O)NC2CCOCC2)CC1 [Example 375], which activity at 10 µM is on record?
A: 457%

Q: For CC(C)(C)NC(=O)N1CCC(n2cnc(-c3ccccc3)c2C2CC2)CC1 [Example 109], which activity at 10 µM is on record?
A: 457%

Q: For O=C(NC1CCCCCC1)N1CCC(n2cnc(-c3ccccc3)c2)CC1 [Example 51], which activity at 10 µM is on record?
A: 520%

Q: Which activity at 10 µM does the source give for O=C(NC1CCCCC1)N1CCCC(n2cnc(-c3ccc(F)cc3)c2Cl)CC1 (stereo not drawn) [Example 241] here?
A: 314%

Q: Which activity at 10 µM does the source give for O=C(NC1CCCC1)N1CCC(n2cnc(-c3cccs3)c2)CC1 [Example 121] here?
A: 201%

Q: CC1(NC(=O)N2CCC(n3cnc(-c4cccc(F)c4)c3)CC2)CCC1 [Example 31] was tested. Which activity at 10 µM did it give?
A: 300%

Q: How did the activity at 10 µM turn out when O=C(Nc1ccccc1F)N1CCC(n2cnc(-c3c(F)cccc3F)c2)CC1 [Example 12] was run?
A: 283%

Q: O=C(N[C@H]1CC[C@H](n2cnc(-c3ccccc3)c2Cl)CC1)C1CCCCC1 [Example 206] was tested. Which activity at 10 µM did it give?
A: 102%

Q: Which activity at 10 µM does the source give for N#Cc1c(-c2cccc(F)c2F)ncn1C1CCN(C(=O)C2CCC(F)(F)CC2)CC1 [Example 272] here?
A: 138%

Q: With O=C(NC1CCC(F)(F)CC1)N1CCC(n2cnc(-c3ccccc3)c2C2CC2)CC1 [Example 113] as the molecule, how does the activity at 10 µM read?
A: 882%

Q: How did the activity at 10 µM turn out when N#Cc1c(-c2ccccc2)ncn1[C@H]1CC[C@@H](NC(=O)C2CC(F)(F)C2)CC1 [Example 203] was run?
A: 641%

Q: For CC(C)(C)C(=O)N[C@H]1CC[C@@H](n2cnc(-c3ccc(OC(F)(F)F)cc3)c2Cl)CC1 [Example 321], which activity at 10 µM is on record?
A: 800%

Q: Which activity at 10 µM does the source give for O=C(NC1CCCCC1)N1[C@@H]2CC[C@H]1C[C@H](n1cnc(-c3ccc(F)cc3F)c1)C2 [Example 408] here?
A: 140%

Q: For CC(C)(C(=O)N[C@H]1CC[C@@H](n2cnc(-c3ccc(F)cc3)c2)CC1)C(F)(F)F [Example 290], which activity at 10 µM is on record?
A: 194%

Q: How did the activity at 10 µM turn out when N#Cc1c(-c2cc(F)ccc2F)ncn1C1CCN(C(=O)C2CCC(F)(F)CC2)CC1 [Example 274] was run?
A: 351%

Q: Which activity at 10 µM does the source give for O=C(C1CCC(F)(F)CC1)N1CCC(n2cnc(-c3ccc(F)c(F)c3)c2)CC1 [Example 139] here?
A: 274%

Q: How did the activity at 10 µM turn out when CCOc1ccc(-c2cn(C3CCN(C(=O)C4CCC(F)(F)CC4)CC3)cn2)cc1 [Example 147] was run?
A: 484%

Q: How did the activity at 10 µM turn out when O=C(NC1CCCCC1)N1CCC(n2cnc(-c3ccc(F)cc3)c2)CC1 [Example 15] was run?
A: 596%

Q: With CCOc1ccc(-c2cn(C3CCN(C(=O)NC4CCC(F)(F)CC4)CC3)cn2)cc1 [Example 61] as the molecule, how does the activity at 10 µM read?
A: 915%

Q: With CC(C)(F)C(=O)N[C@H]1CC[C@@H](n2cnc(-c3ccccc3)c2C#N)CC1 [Example 197, N-[cis-4-(5-cyano-4-phenyl-1H-imidazol-1-yl)cyclohexyl]-2-fluoro-2-methylpropanamide] as the molecule, how does the activity at 10 µM read?
A: 637%

Q: For O=C(C1CCC(F)(F)CC1)N1[C@@H]2CC[C@H]1C[C@H](n1cnc(-c3cccc(F)c3F)c1Cl)C2 [Example 457], which activity at 10 µM is on record?
A: 865%

Q: For N#Cc1c(-c2ccc(F)cc2)ncn1C1CCN(C(=O)C2CC(F)(F)C2)CC1 [Example 267], which activity at 10 µM is on record?
A: 594%

Q: How did the activity at 10 µM turn out when O=C(c1ccc(F)cn1)N1CCC(n2cnc(-c3ccc(F)c(F)c3)c2)CC1 [Example 140] was run?
A: 127%

Q: With Cc1c(-c2ccc(F)cc2)ncn1[C@H]1CC[C@@H](NC(=O)C(C)(C)F)CC1 [Example 351] as the molecule, how does the activity at 10 µM read?
A: 540%

Q: Which activity at 10 µM does the source give for N#Cc1c(-c2cccc(F)c2F)ncn1[C@@H]1C[C@H]2CC[C@@H](C1)N2C(=O)NC1CCC(F)(F)CC1 [Example 424] here?
A: 210%

Q: With COc1ccc(-c2ncn(C3CCN(C(=O)NC4CCCC4)CC3)c2Cl)cc1 [Example 74] as the molecule, how does the activity at 10 µM read?
A: 779%

Q: How did the activity at 10 µM turn out when O=C(NC1CCC(F)(F)CC1)N1CCC(n2cnc(-c3ccc(OC(F)F)cc3)c2)CC1 [Example 60] was run?
A: 616%

Q: Which activity at 10 µM does the source give for O=C(N[C@H]1CC[C@@H](n2cnc(-c3cccc(C(F)(F)F)c3)c2Cl)CC1)C1CCC1 [Example 195] here?
A: 142%

Q: How did the activity at 10 µM turn out when COc1cc(F)c(-c2cn([C@H]3CC[C@@H](NC(=O)C(C)(C)F)CC3)cn2)cc1F [Example 319] was run?
A: 328%

Q: How did the activity at 10 µM turn out when Cc1ccccc1-c1cn(C2CCN(C(=O)NC3CCCCC3)CC2)cn1 [Example 14] was run?
A: 351%

Q: How did the activity at 10 µM turn out when O=C(NC1CCCCC1)N1[C@@H]2CC[C@H]1C[C@@H](n1cnc(-c3ccc(F)cc3)c1Cl)C2 [Example 390] was run?
A: 683%

Q: For Cc1c(-c2ccc(F)cc2)ncn1[C@H]1CC[C@@H](C(=O)NC2CCOCC2)CC1 [Example 381], which activity at 10 µM is on record?
A: 377%

Q: With O=C(C1CCC(F)(F)CC1)N1CCC(n2cnc(-c3ccccc3)c2)CC1 [Example 6, [4-(4-Phenyl-1H-imidazol-1-yl)piperidin-1-yl](4,4-difluorocyclohexyl)methanone] as the molecule, how does the activity at 10 µM read?
A: 292%

Q: Which activity at 10 µM does the source give for O=C(NC1CCOCC1)N1[C@@H]2CC[C@H]1C[C@@H](n1cnc(-c3cc(F)ccc3F)c1Cl)C2 [Example 397] here?
A: 522%

Q: For O=C(C1CCC(F)(F)CC1)N1CCC(n2cnc(-c3ccc(F)cc3)c2)CC1 [Example 261], which activity at 10 µM is on record?
A: 399%

Q: For Cc1c(-c2ccc(F)cc2)ncn1[C@H]1CC[C@@H](NC(=O)C2CCOCC2)CC1 [Example 352], which activity at 10 µM is on record?
A: 164%

Same assay, conditions: comparison across Tables 18 to 25

Q: How did the “PAM activity for α7 nAChR (in words)” value turn out when O=C(NC1CCC(F)(F)CC1)N1CCC(n2cnc(-c3ccc(C(F)(F)F)cc3)c2)CC1 [Example 25] was run?
A: stronger PAM activity than others

Q: How did the “PAM activity for α7 nAChR (in words)” value turn out when O=C(NC1CCOCC1)N1[C@@H]2CC[C@H]1C[C@H](n1cnc(-c3ccc(F)cc3F)c1Cl)C2 [Example 416] was run?
A: stronger PAM activity than others

Q: With O=C(NC1CCOCC1)N1CCC(n2cnc(-c3ccc(C(F)(F)F)cc3)c2Cl)CC1 [Example 93] as the molecule, how does the “PAM activity for α7 nAChR (in words)” value read?
A: stronger PAM activity than others

Q: O=C(NC1CCOCC1)[C@H]1CC[C@@H](n2cnc(-c3ccc(Cl)cc3)c2Cl)CC1 [Example 363] was tested. Which “PAM activity for α7 nAChR (in words)” value did it give?
A: stronger PAM activity than others

Q: N#Cc1c(-c2ccccc2)ncn1C1CCN(C(=O)NC2CCC(F)(F)CC2)CC1 [Example 99] was tested. Which “PAM activity for α7 nAChR (in words)” value did it give?
A: stronger PAM activity than others

From patent publication US20150259344A1, “IMIDAZOLE DERIVATIVE” (DAINIPPON SUMITOMO PHARMA CO., LTD., priority 2012, published 2015)
